Values joined by “and” are separate entries in the source; they are usually repeats but may differ in a detail not shown here. Equal values may be shown once. Inconclusive results and toxic doses are left out. The calls were made as follows: active = survival T/C of 150% or more; inactive = T/C below 125% in these data. Square brackets hold non-standard residues; d marks the D form. Peptide text beside a SMILES is read from it. ξ: configuration not given here. ξV = CC(C)C(N)C(=O)O
Tested on: BDF1 mice, B16 melanoma ip, median survival T/C
Test: NCI In Vivo Anticancer Drug Screen. Data for tumor model B16 Melanoma (intraperitoneal) in B6D2F1 (BDF1) mice
Settings: endpoint: median survival time, higher = longer survival
How it was run: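 Survival or tumor size is measured after treatment of tumor-bearing mice and normalised to the vehicle-treated control group.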

[1] = dose: 25.0 mg/kg/injection, schedule: Q01DX009 (ip), vehicle: saline
[2] = dose: 50.0 mg/kg/injection, schedule: Q01DX009 (ip), vehicle: saline
[3] = dose: 100.0 mg/kg/injection, schedule: Q01DX009 (ip), vehicle: saline
[4] = dose: 100.0 mg/kg/injection, schedule: Q04DX003 (ip), vehicle: saline
[5] = dose: 200.0 mg/kg/injection, schedule: Q04DX003 (ip), vehicle: saline
[6] = dose: 400.0 mg/kg/injection, schedule: Q04DX003 (ip), vehicle: saline
[7] = dose: 100.0 mg/kg/injection, schedule: Q04DX003 (ip), vehicle: saline with Tween-80
[8] = dose: 12.5 mg/kg/injection, schedule: Q01DX009 (ip), vehicle: Klucel (hydroxypropylcellulose) (HPC)
[9] = dose: 50.0 mg/kg/injection, schedule: Q01DX009 (ip), vehicle: Klucel (hydroxypropylcellulose) (HPC)
[10] = dose: 100.0 mg/kg/injection, schedule: Q01DX009 (ip), vehicle: Klucel (hydroxypropylcellulose) (HPC)
[11] = dose: 200.0 mg/kg/injection, schedule: Q01DX009 (ip), vehicle: Klucel (hydroxypropylcellulose) (HPC)
[12] = dose: 200.0 mg/kg/injection, schedule: Q01DX009 (ip), vehicle: saline
[13] = dose: 400.0 mg/kg/injection, schedule: Q01DX009 (ip), vehicle: saline
[14] = dose: 25.0 mg/kg/injection, schedule: Q01DX009 (ip), vehicle: saline with Tween-80
[15] = dose: 50.0 mg/kg/injection, schedule: Q01DX009 (ip), vehicle: saline with Tween-80
[16] = dose: 100.0 mg/kg/injection, schedule: Q01DX009 (ip), vehicle: saline with Tween-80
[17] = dose: 200.0 mg/kg/injection, schedule: Q01DX009 (ip), vehicle: saline with Tween-80
[18] = dose: 400.0 mg/kg/injection, schedule: Q01DX009 (ip), vehicle: saline with Tween-80

Measured: T/C

NC(CSCCc1ccccn1)C(=O)O (stereo not drawn)
inactive: [1] 100 % of control | [2] 100 % of control | [3] 110 % of control | [4] 104 % of control | [5] 104 % of control | [6] 104 % of control

CC(=O)OC1C(=O)C(O)C(C)OC1O[C@@H]1C[C@@]2(C)[C@@H]3CC=C4[C@@H](C[C@H](O)C(=O)C4(C)C)[C@]3(C)C(=O)C[C@]2(C)[C@H]1[C@@](C)(O)C(=O)/C=C/C(C)(C)O (stereo partly drawn)
inactive: dose: 1.0 mg/kg/injection, schedule: Q01DX009 (ip), vehicle: saline 92 % of control | dose: 2.0 mg/kg/injection, schedule: Q01DX009 (ip), vehicle: saline 92 % of control

c1cc2cc3c(cc2cc1CC1=NCCc2cc4c(cc21)OCO4)OCO3
inactive: dose: 150.0 mg/kg/injection, schedule: Q01DX009 (ip), vehicle: other 102 % of control

COc1ccc(Cl)cc1NC(=O)c1ccc(Cl)cc1Cl
inactive: [7] 100 % of control | dose: 200.0 mg/kg/injection, schedule: Q04DX003 (ip), vehicle: saline with Tween-80 97 % of control | dose: 400.0 mg/kg/injection, schedule: Q04DX003 (ip), vehicle: saline with Tween-80 95 % of control

Cc1c2cc3c(c1O)C(=O)CC(O3)c1ccc(O)c(c1)-c1cccc(c1O)C(=O)OCC1OC(O2)C(O)C(O)C1O (stereo not drawn)
inactive: dose: 0.13 mg/kg/injection, schedule: Q01DX009 (ip), vehicle: Klucel (hydroxypropylcellulose) (HPC) 93 % of control | dose: 0.25 mg/kg/injection, schedule: Q01DX009 (ip), vehicle: Klucel (hydroxypropylcellulose) (HPC) 95 % of control | dose: 0.5 mg/kg/injection, schedule: Q01DX009 (ip), vehicle: Klucel (hydroxypropylcellulose) (HPC) 89 % of control | dose: 1.0 mg/kg/injection, schedule: Q01DX009 (ip), vehicle: Klucel (hydroxypropylcellulose) (HPC) 88 % of control

CCOP(=O)(O)CC(=O)NC(CC(=O)O)C(=O)O (stereo not drawn)
inactive: [8] 97 % of control | dose: 25.0 mg/kg/injection, schedule: Q01DX009 (ip), vehicle: Klucel (hydroxypropylcellulose) (HPC) 101 % of control | [9] 92 % of control | [10] 92 % of control | [11] 97 % of control | dose: 400.0 mg/kg/injection, schedule: Q01DX009 (ip), vehicle: Klucel (hydroxypropylcellulose) (HPC) 94 % of control

NCC(=O)NC(CO)C(=O)O (stereo not drawn)
inactive: [3] 90 % of control | [4] 100 % of control | [12] 106 % of control | [5] 102 % of control | [13] 95 % of control | [6] 95 % of control

CC(C)C(NC(=O)CN)C(=O)O (stereo not drawn) (H-Gly-[ξV]-OH)
inactive: [3] 102 % of control | [4] 102 % of control | [12] 100 % of control | [5] 97 % of control | [13] 90 % of control | [6] 95 % of control

Cc1cc2c(c3oc(C4(C)OC4C4OC4C)cc(=O)c13)C(=O)c1c(O)c(C3CC(C)(N(C)C)C(O)C(C)O3)cc(C3CC(N(C)C)C(O)C(C)O3)c1C2=O (stereo not drawn)
inactive: dose: 1.3 micrograms/kg/injection, schedule: Q01DX009 (ip), vehicle: clinical formulation 108 % of control | dose: 1.3 micrograms/kg/injection, schedule: Q01DX009 (ip), vehicle: saline 97 % of control | dose: 2.5 micrograms/kg/injection, schedule: Q01DX009 (ip), vehicle: clinical formulation 117 % of control | dose: 2.5 micrograms/kg/injection, schedule: Q01DX009 (ip), vehicle: saline 108 % of control | dose: 4.0 micrograms/kg/injection, schedule: Q01DX009 (ip), vehicle: Klucel (hydroxypropylcellulose) (HPC) 119 % of control | dose: 5.0 micrograms/kg/injection, schedule: Q01DX009 (ip), vehicle: Klucel (hydroxypropylcellulose) (HPC) 122 % of control | dose: 5.0 micrograms/kg/injection, schedule: Q01DX009 (ip), vehicle: saline 107 % of control and 108 % of control | dose: 8.0 micrograms/kg/injection, schedule: Q01DX009 (ip), vehicle: Klucel (hydroxypropylcellulose) (HPC) 110 % of control | dose: 10.0 micrograms/kg/injection, schedule: Q01DX009 (ip), vehicle: clinical formulation 113 % of control | dose: 10.0 micrograms/kg/injection, schedule: Q01DX009 (ip), vehicle: saline 101 % of control and 123 % of control | dose: 20.0 micrograms/kg/injection, schedule: Q01DX009 (ip), vehicle: saline 124 % of control | dose: 40.0 micrograms/kg/injection, schedule: Q01DX009 (ip), vehicle: saline 114 % of control

CCCCC[C@H](O)/C=C/[C@H]1[C@H](O)CC(=O)[C@@H]1C/C=C\CCCC(=O)O
inactive: dose: 0.75 mg/kg/injection, schedule: Q04DX002 (ip), vehicle: Klucel (hydroxypropylcellulose) (HPC) 108 % of control | dose: 1.5 mg/kg/injection, schedule: Q04DX002 (ip), vehicle: Klucel (hydroxypropylcellulose) (HPC) 97 % of control | dose: 3.0 mg/kg/injection, schedule: Q04DX002 (ip), vehicle: Klucel (hydroxypropylcellulose) (HPC) 96 % of control | dose: 6.0 mg/kg/injection, schedule: Q04DX002 (ip), vehicle: Klucel (hydroxypropylcellulose) (HPC) 92 % of control | dose: 12.5 mg/kg/injection, schedule: Q04DX002 (ip), vehicle: other 96 % of control | dose: 24.0 mg/kg/injection, schedule: Q04DX002 (ip), vehicle: Klucel (hydroxypropylcellulose) (HPC) 103 % of control | dose: 25.0 mg/kg/injection, schedule: Q04DX002 (ip), vehicle: other 91 % of control | dose: 100.0 mg/kg/injection, schedule: Q04DX002 (ip), vehicle: other 96 % of control | dose: 200.0 mg/kg/injection, schedule: Q04DX002 (ip), vehicle: other 96 % of control

Nc1nc2c(c(=O)[nH]1)NC(CCNc1ccc(C(=O)NC(CCC(=O)O)C(=O)O)cc1)CN2 (stereo not drawn)
inactive: [1] 94 % of control | [2] 102 % of control | [3] 110 % of control

O=C(CCCCl)CC(O)(C(F)(F)Cl)C(F)(F)Cl
inactive: [14] 114 % of control | dose: 25.0 mg/kg/injection, schedule: Q04DX003 (ip), vehicle: saline with Tween-80 97 % of control | [15] 114 % of control | dose: 50.0 mg/kg/injection, schedule: Q04DX003 (ip), vehicle: saline with Tween-80 102 % of control | [16] 117 % of control | [7] 105 % of control

CCCCn1cnc2c(N)ncnc21
inactive: [8] 92 % of control | [9] 87 % of control

Nc1ncnc2c1ncn2C1OC(CO)C(O)C1O (stereo not drawn)
inactive: dose: 18.7 mg/kg/injection, schedule: Q01DX009 (ip), vehicle: saline 96 % of control | dose: 32.0 mg/kg/injection, schedule: Q01DX009 (ip), vehicle: Klucel (hydroxypropylcellulose) (HPC) 99 % of control and 105 % of control | dose: 37.5 mg/kg/injection, schedule: Q01DX009 (ip), vehicle: saline 99 % of control | dose: 64.0 mg/kg/injection, schedule: Q01DX009 (ip), vehicle: Klucel (hydroxypropylcellulose) (HPC) 98 % of control and 101 % of control | dose: 75.0 mg/kg/injection, schedule: Q01DX009 (ip), vehicle: saline 98 % of control | dose: 128.0 mg/kg/injection, schedule: Q01DX009 (ip), vehicle: Klucel (hydroxypropylcellulose) (HPC) 99 % of control and 101 % of control | dose: 150.0 mg/kg/injection, schedule: Q01DX009 (ip), vehicle: saline 121 % of control | dose: 256.0 mg/kg/injection, schedule: Q01DX009 (ip), vehicle: Klucel (hydroxypropylcellulose) (HPC) 97 % of control and 98 % of control | dose: 512.0 mg/kg/injection, schedule: Q01DX009 (ip), vehicle: Klucel (hydroxypropylcellulose) (HPC) 93 % of control and 101 % of control | dose: 600.0 mg/kg/injection, schedule: Q01DX009 (ip), vehicle: saline 123 % of control

O=c1c2ccccc2[nH]c(=S)n1C1CCCCC1
inactive: [10] 90 % of control | [11] 90 % of control

N=C1SCc2ccc3ccccc3c21
inactive: [15] 99 % of control | [16] 97 % of control | [17] 91 % of control | [18] 89 % of control

NC(=O)C(Cl)(Cl)Cl
inactive: [16] 105 % of control | [17] 96 % of control | [18] 98 % of control

CCCc1c(C)[nH]c2ccc(C)cc12
inactive: [14] 101 % of control | [15] 105 % of control | [16] 87 % of control

Reference: PubChem BioAssay AID192 (DTP/NCI, 2004)
